Results reported in US6599940B2, “Synthesis of 2-hydroxymethylglutamic acid and congeners thereof” (Georgetown University, priority 2000, dated 2003).

Assays:
Settings in all cases: result in words, no method or number given
[1] = target: mGluR3 (Homo sapiens, UniProt Q14832); experiment: Agonist activity at the Group 2 receptor mGluR3
[2] = target: mGluR2 (Homo sapiens, UniProt Q14416); experiment: Antagonist activity at mGluR2
[3] = system: Group 1 mGluRs; experiment: Effect on Group 1 mGluRs
[4] = system: Group 3 mGluRs; experiment: Effect on Group 3 mGluRs

Chain of mGluR2 (Q14416 19-872): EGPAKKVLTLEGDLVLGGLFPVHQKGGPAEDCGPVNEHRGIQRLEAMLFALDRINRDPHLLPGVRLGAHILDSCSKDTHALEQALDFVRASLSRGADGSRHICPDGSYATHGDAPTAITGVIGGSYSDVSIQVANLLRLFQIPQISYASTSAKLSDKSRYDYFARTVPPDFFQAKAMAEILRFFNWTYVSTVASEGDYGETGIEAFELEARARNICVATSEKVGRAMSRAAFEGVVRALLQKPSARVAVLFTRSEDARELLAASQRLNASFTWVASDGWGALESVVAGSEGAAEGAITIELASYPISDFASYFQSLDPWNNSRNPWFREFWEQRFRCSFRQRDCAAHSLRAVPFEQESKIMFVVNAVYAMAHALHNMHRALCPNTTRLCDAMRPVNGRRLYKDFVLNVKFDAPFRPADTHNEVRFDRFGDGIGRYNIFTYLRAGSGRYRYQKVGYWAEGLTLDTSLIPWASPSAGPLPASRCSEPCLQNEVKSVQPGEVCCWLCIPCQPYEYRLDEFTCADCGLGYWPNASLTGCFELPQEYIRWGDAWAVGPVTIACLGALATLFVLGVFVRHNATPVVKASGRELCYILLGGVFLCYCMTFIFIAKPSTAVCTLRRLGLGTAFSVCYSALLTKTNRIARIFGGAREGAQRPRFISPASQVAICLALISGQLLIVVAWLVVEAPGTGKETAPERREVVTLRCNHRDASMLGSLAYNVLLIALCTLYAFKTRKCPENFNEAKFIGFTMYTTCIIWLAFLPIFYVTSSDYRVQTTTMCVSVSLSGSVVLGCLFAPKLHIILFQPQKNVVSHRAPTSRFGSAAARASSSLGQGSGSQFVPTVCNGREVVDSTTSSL
Chain of mGluR3 (Q14832 23-879): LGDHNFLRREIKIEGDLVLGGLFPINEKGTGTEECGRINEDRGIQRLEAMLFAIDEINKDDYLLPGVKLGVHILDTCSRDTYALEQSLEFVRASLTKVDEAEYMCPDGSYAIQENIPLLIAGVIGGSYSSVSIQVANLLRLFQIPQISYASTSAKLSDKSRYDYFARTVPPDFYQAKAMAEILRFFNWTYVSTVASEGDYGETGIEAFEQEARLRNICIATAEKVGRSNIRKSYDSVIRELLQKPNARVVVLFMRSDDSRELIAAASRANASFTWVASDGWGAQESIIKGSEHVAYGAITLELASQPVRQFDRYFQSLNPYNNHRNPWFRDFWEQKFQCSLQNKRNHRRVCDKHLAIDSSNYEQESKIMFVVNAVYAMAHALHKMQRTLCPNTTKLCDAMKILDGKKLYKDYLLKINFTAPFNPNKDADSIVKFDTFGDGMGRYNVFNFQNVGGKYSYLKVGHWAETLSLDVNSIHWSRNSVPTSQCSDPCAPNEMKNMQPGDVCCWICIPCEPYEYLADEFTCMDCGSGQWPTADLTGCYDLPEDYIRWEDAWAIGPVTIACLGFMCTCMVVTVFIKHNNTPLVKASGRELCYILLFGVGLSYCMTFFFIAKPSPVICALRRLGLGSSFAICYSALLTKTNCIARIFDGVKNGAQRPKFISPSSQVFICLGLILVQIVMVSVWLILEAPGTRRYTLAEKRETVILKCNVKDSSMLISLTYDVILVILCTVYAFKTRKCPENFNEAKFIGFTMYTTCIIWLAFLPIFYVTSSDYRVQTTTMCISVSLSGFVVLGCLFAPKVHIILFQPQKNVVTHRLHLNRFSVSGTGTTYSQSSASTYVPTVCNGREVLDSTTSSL

activity at the Group 2 receptor mGluR3 [1]: relatively potent agonist | activity at mGluR2 [2]: weak antagonist
SMILES: N[C@@](CO)(CCC(=O)O)C(=O)O [Compound 1, (R)-2(Hydroxymethyl)glutamic acid]
effect on the Group 1 mGluRs [3]: little or no effect | effect on the Group 3 mGluRs [4]: little or no effect
